Values after ≈ are worked out from the molar mass of the structure shown. Values joined by “and” are separate entries in the source; they are usually repeats but may differ in a detail not shown here. Identical values can stand only once. Like-named read-outs stand apart in the source and are kept apart here.
How the values were obtained:
[1] = test system: Mtb H37Ra; assay: In vitro antimycobacterial activity, Microplate Alamar Blue Assay (MABA); assay type: cell-based, Mycobacterium tuberculosis; conditions: for MIC: Mycobacterium tuberculosis, H37RA, read-out: MIC Mtb H37Ra; for SI (selectivity index): IC50 HepG2 (µM)/MIC Mtb H37Ra (µM); for MIC Mtb H37Ra: MABA, pH of testing medium 6.6
[2] = test system: S. aureus; assay: In vitro antibacterial activity, microdilution broth (EUCAST); assay type: cell-based; conditions: Staphylococcus aureus; 48 h; standards; read-out: MIC Staphylococcus aureus
[3] = test system: K. pneumoniae; assay: as above; assay type: cell-based; conditions: Klebsiella pneumoniae; 48 h; standards; read-out: MIC Klebsiella pneumonia
[4] = test system: S. epidermidis; assay: as above; assay type: cell-based; conditions: Staphylococcus epidermidis; 48 h; standards; read-out: MIC Staphylococcus epidermidis
[5] = test system: S. marcescens; assay: as above; assay type: cell-based; conditions: Serratia marcescens; 48 h; standards; read-out: MIC Serratia marcescens
[6] = test system: P. aeruginosa; assay: as above; assay type: cell-based; conditions: Pseudomonas aeruginosa; 48 h; standards; read-out: MIC Pseudomonas aeruginosa
[7] = test system: M. smegmatis; assay: In vitro antimycobacterial activity, MABA; assay type: cell-based, Mycobacterium smegmatis; conditions: Mycolicibacterium smegmatis, read-out: MIC M. smeg
[8] = test system: M. aurum; assay: In vitro antimycobacterial activity, MABA; assay type: cell-based, Mycobacterium aurum; conditions: Mycolicibacterium aurum, read-out: MIC M. aurum
[9] = test system: E. coli; assay: In vitro antibacterial activity, microdilution broth (EUCAST); assay type: cell-based; conditions: Escherichia coli; 48 h; standards; read-out: MIC Escherichia coli
[10] = test system: E. faecalis; assay: as above; assay type: cell-based; conditions: Enterococcus faecalis; 48 h; standards; read-out: MIC Enterococcus faecalis
[11] = test system: HepG2 cell line; assay: In vitro cytotoxicity, CellTiter 96 (MTS); assay type: cell-based; conditions: Homo sapiens, HepG2; cytotoxicity, 24 h incubation, CellTiter 96; read-out: HepG2 IC50

SMILES	MIC [1]	MIC ([7]; MABA)	MIC ([8]; MABA)	IC50 [11]	SI (selectivity index) [1]	further results
O=C(O)c1nccnc1C(=O)Nc1cccc(C(F)(F)F)c1 [C00007 R=3-CF3, reference compound]	250 µg/mL (≈ 803 µM)					
COc1ccc(NC(=O)c2nccnc2C(=O)O)cc1 [C00007 R=4-OCH3, reference compound]	≥ 500 µg/mL					
O=C(O)c1nccnc1C(=O)Nc1ccccc1 [C00007 R=H, reference compound]	≥ 500 µg/mL					
O=C(O)c1cn(C2CC2)c2cc(N3CCNCC3)c(F)cc2c1=O [CPX, ciprofloxacin]	0.25 µg/mL and 0.75 µM	0.125 µg/mL	0.0156 µg/mL	> 500 µM		MIC [2]: 0.128 to 0.256 µg/mL (≈ 0.386 to 0.773 µM); MIC [3]: > 1.02 µg/mL; MIC [4]: > 1.02 µg/mL; MIC [5]: 0.256 µg/mL (≈ 0.773 µM); MIC [6]: 0.128 µg/mL (≈ 0.386 µM); MIC [9]: 0.008 µg/mL (≈ 0.0241 µM); MIC [10]: 0.512 µg/mL (≈ 1.55 µM)
O=C(Nc1ccccc1)c1cnc2ccccc2n1 [Compound 1]	≥ 500 µg/mL	≥ 250 µg/mL	≥ 250 µg/mL	> 50 µM		
O=C(Nc1cccc(O)c1)c1cnc2ccccc2n1 [Compound 2]	15.6 µg/mL and 58.9 µM	≥ 125 µg/mL	≥ 125 µg/mL	> 250 µM	>4.20	
O=C(Nc1ccc(O)cc1)c1cnc2ccccc2n1 [Compound 3]	62.5 µg/mL and 236 µM	≥ 500 µg/mL	≥ 500 µg/mL	> 250 µM	>1.01	
COc1cc(NC(=O)c2cnc3ccccc3n2)cc(OC)c1 [Compound 4]	62.5 µg/mL and 202 µM	≥ 125 µg/mL	≥ 125 µg/mL	> 25 µM	>0.12	
COc1ccc(NC(=O)c2cnc3ccccc3n2)cc1 [Compound 5]	≥ 125 µg/mL	≥ 125 µg/mL	≥ 125 µg/mL	> 50 µM		
O=C(NC1CCCCC1)c1cnc2ccccc2n1 [Compound 6]	31.2 µg/mL and 122 µM	31.2 µg/mL	≥ 500 µg/mL	> 1000 µM	>8.17	MIC [7]: 122 µM
O=C(Nc1ccccc1F)c1cnc2ccccc2n1 [Compound 7]	≥ 500 µg/mL	62.5 µg/mL	≥ 500 µg/mL	> 100 µM		MIC [7]: 234 µM
O=C(Nc1cccc(F)c1)c1cnc2ccccc2n1 [Compound 8]	250 µg/mL (≈ 935 µM)	≥ 500 µg/mL	≥ 500 µg/mL	> 100 µM		
O=C(Nc1ccc(F)cc1)c1cnc2ccccc2n1 [Compound 9]	15.6 µg/mL and 58.5 µM	≥ 500 µg/mL	≥ 500 µg/mL	> 100 µM	>1.71	
CN(C)c1ccc(NC(=O)c2cnc3ccccc3n2)cc1 [Compound 10]	≥ 500 µg/mL	≥ 500 µg/mL	≥ 500 µg/mL	> 250 µM		
O=C(Nc1ccc(F)cc1F)c1cnc2ccccc2n1 [Compound 11]	≥ 500 µg/mL	≥ 500 µg/mL	≥ 500 µg/mL	> 250 µM		
O=C(Nc1ccccc1Cl)c1cnc2ccccc2n1 [Compound 12]	≥ 125 µg/mL	≥ 125 µg/mL	≥ 125 µg/mL	> 50 µM		
O=C(Nc1cccc(Cl)c1)c1cnc2ccccc2n1 [Compound 13]	≥ 500 µg/mL	≥ 500 µg/mL	≥ 500 µg/mL	> 25 µM		
O=C(Nc1cccc(C(F)(F)F)c1)c1cnc2ccccc2n1 [Compound 14]	≥ 500 µg/mL	≥ 125 µg/mL	≥ 125 µg/mL	> 25 µM		
O=C(NCc1ccccc1)c1cnc2ccccc2n1 [Compound 15]	15.6 µg/mL and 59.3 µM	≥ 125 µg/mL	≥ 125 µg/mL	> 1000 µM	>17	MIC Mtb H37Ra [1]: 15.625 (15) µg/mL

SMILES	MIC [1]	MIC ([7]; MABA)	MIC ([8]; MABA)	IC50 [11]	SI (selectivity index) [1]	further results
O=C(NCc1cccc(O)c1)c1cnc2ccccc2n1 [Compound 16]	31.2 µg/mL and 112 µM	62.5 µg/mL	≥ 500 µg/mL	601 µM	5.40	MIC [7]: 237 µM
O=C(NCc1ccc(O)cc1)c1cnc2ccccc2n1 [Compound 17]	62.5 µg/mL and 224 µM	≥ 500 µg/mL	500 µg/mL	> 250 µM	>1.1	
COc1ccc(OC)c(CNC(=O)c2cnc3ccccc3n2)c1 [Compound 18]	3.91 µg/mL and 12.1 µM			> 1000 µM		MIC [7]: ≥ 500 µg/mL; MIC [8]: ≥ 500 µg/mL
COc1cccc(CNC(=O)c2cnc3ccccc3n2)c1 [Compound 19]	15.6 µg/mL and 47 µM			> 1000 µM	>21.3	MIC [7]: ≥ 500 µg/mL; MIC [8]: ≥ 500 µg/mL
COc1ccc(CNC(=O)c2cnc3ccccc3n2)cc1 [Compound 20]	3.91 µg/mL and 11.8 µM			209 µM	16.1	MIC [7]: ≥ 250 µg/mL; MIC [8]: 125 µg/mL; MIC Mtb H37Ra [1]: 3.91 (20) µg/mL
O=C(NCc1cccc(F)c1)c1cnc2ccccc2n1 [Compound 21]	7.81 µg/mL and 27.8 µM	≥ 500 µg/mL	≥ 500 µg/mL	248 µM	8.92	
O=C(NCc1ccc(F)cc1F)c1cnc2ccccc2n1 [Compound 22]	≥ 500 µg/mL	≥ 500 µg/mL	≥ 500 µg/mL	> 25 µM		
Cc1ccccc1CNC(=O)c1cnc2ccccc2n1 [Compound 23]	7.81 µg/mL and 28.2 µM	≥ 125 µg/mL	≥ 125 µg/mL	157 µM	5.60	
Cc1ccc(CNC(=O)c2cnc3ccccc3n2)cc1 [Compound 24]	7.81 µg/mL and 28.2 µM	≥ 250 µg/mL	≥ 250 µg/mL	87.7 µM	3.11	
O=C(NCc1ccccc1Cl)c1cnc2ccccc2n1 [Compound 25]	15.6 µg/mL and 52.5 µM			528 µM		MIC [7]: ≥ 500 µg/mL; MIC [8]: ≥ 500 µg/mL
O=C(NCc1cccc(Cl)c1)c1cnc2ccccc2n1 [Compound 26]	7.81 µg/mL and 26.2 µM	31.2 µg/mL	31.2 µg/mL	140 µM	5.34	MIC [7]: 105 µM; MIC [8]: 105 µM
O=C(NCc1ccc(Br)cc1)c1cnc2ccccc2n1 [Compound 27]	7.81 µg/mL and 22.8 µM	≥ 500 µg/mL	≥ 500 µg/mL	> 100 µM	>4.4	
O=C(NCc1cccc(C(F)(F)F)c1)c1cnc2ccccc2n1 [Compound 28]	3.91 µg/mL and 11.8 µM	250 µg/mL	≥ 500 µg/mL	48.6 µM	4.12	MIC Mtb H37Ra [1]: 3.91 (28) µg/mL
O=C(NCc1ccc(Cl)cc1Cl)c1cnc2ccccc2n1 [Compound 30]	≥ 500 µg/mL	≥ 125 µg/mL	≥ 125 µg/mL	> 100 µM		
O=C(NCc1ccc(Cl)c(Cl)c1)c1cnc2ccccc2n1 [Compound 31]	7.81 µg/mL and 23.5 µM	≥ 500 µg/mL	≥ 500 µg/mL	66.9 µM	2.80	
O=C(NCCc1ccccc1)c1cnc2ccccc2n1 [Compound 32, N-phenethylquinoxaline-2-carboxamide]	≥ 500 µg/mL	≥ 500 µg/mL	≥ 500 µg/mL	> 1000 µM		
O=C(NCCCc1ccccc1)c1cnc2ccccc2n1 [Compound 33, N-phenylpropylquinoxaline-2-carboxamide]	15.6 µg/mL and 53.6 µM	≥ 500 µg/mL	≥ 500 µg/mL	146 µM	2.7	
NNC(=O)c1ccncc1 [INH, isoniazid, reference compound]	0.25 µg/mL and 1.82 µM			> 1000 µM		MIC [7]: 15.6 µg/mL; MIC [8]: 3.91 µg/mL
CO[C@H]1/C=C/O[C@@]2(C)Oc3c(C)c(O)c4c(O)c(c(/C=N/N5CCN(C)CC5)c(O)c4c3C2=O)NC(=O)/C(C)=C\C=C\[C@H](C)[C@H](O)[C@@H](C)[C@@H](O)[C@@H](C)[C@H](OC(C)=O)[C@@H]1C [RIF, rifampicin, reference compound]	0.00313 µg/mL and 0.0038 µM			> 500 µM		MIC [7]: 12.5 µg/mL; MIC [8]: 0.39 µg/mL

— article PMC8399443, “Synthesis, Biological Evaluation, and In Silico Modeling of N-Substituted Quinoxaline-2-Carboxamides” (Pharmaceuticals, 2021)
